Test results reported in patent US20160017054A1, “Spermidine/Spermine N1 - Acetyltransferase Antibodies As Anti-Cancer Drug Compounds” (BIOMARK TECHNOLOGIES INC., priority 2013, published 2016).

Test system: human tumor cell lines U2-OS, HeLa, Malme-3M, PC-3 and HEK293
Experiment: Relative cell viability (percent confluency) during incubation with spermidine
Type: cell-based
Conditions: spermidine 22 μM to 550 μM

## NCCCCNCCCN [spermidine, Spermidine]
SSAT non-expressing cell lines (U2-OS and HeLa)
  relative cell viability, expressed as percent confluency: highest
SSAT over-expressing cell lines (Malme-M3 and PC-3)
  relative cell viability, expressed as percent confluency: lowest
